Paper PMC8347148, “An Evaluation of Human Induced Pluripotent Stem Cells to Test for Cardiac Developmental Toxicity” (International Journal of Molecular Sciences, 2021)
Values after ≈ are worked out from the molar mass of the structure shown. Like-named read-outs stand apart in the source and are kept apart here.

Assays:
[1] = test system: human foreskin fibroblasts (hFF); experiment: hFF viability screen (MTT); type: cell-based; conditions: for IC50: Homo sapiens, Fibroblast; for concentrations with reductions in hFF cell viability: Figure 4B
Description: Human foreskin fibroblasts (hFF) were gifted from Dr. Derrick Rancourt (University of Calgary). hFFs were seeded onto 0.1% gelatin-coated tissue culture plates and maintained in Dulbecco’s modification of Eagle’s medium (DMEM with 4.5 g/L glucose, L-glutamine and sodium pyruvate; Corning cellgro) supplemented with 10% FBS (Atlanta Biologicals, Flower Branch, GA, USA) and 0.5% penicillin/streptomycin (10,000 units/10,000 units, Gibco).
5-flurorouracil (5-FU), all-trans retinoic acid (atRA), and penicillin G (PenG) were selected from a subset of chemicals used in the original EST validation study. 5-FU and atRA were selected as positive test compounds due to their established embryotoxic potential while PenG was used as a negative control. All chemicals were purchased from Sigma. Stock solutions were prepared in DMSO and filtered through a 0.2 micron Acrodisc® PSF Syringe Filter (Pall Corporation, Port Washington, NY, USA), aliquoted into sterile microcentrifuge tubes and stored at −20 °C until use. Test chemicals were serially diluted to final concentrations in differentiation media. Cardiogenic cultures were treated with designated chemicals (or solvent only) through day 25 of differentiation and hFF cultures were treated with each compound for a 25 day duration period. Compounds were replenished with each medium change.
Cardiomyocyte survival following concurrent exposure to each compound was evaluated by 3-[4,5-dimethylthiazol-2-yl]-2,5-diphenylterazolium bromide (MTT) assay from three independent differentiations each carried out in technical quintuplicate as previously described. On day 25 of differentiation, cells were incubated with MTT (5 mg/mL) for 2 h at 37 °C. MTT supernatant was removed and replaced with a desorb solution of 0.7% SDS in 2-propanol. The absorbance of the solution was measured at 570 nm in an iMark™ microplate reader (Bio-Rad) with 655 nm as a reference wavelength. Here, mitochondrial dehydrogenase activity on the MTT in solution is directly proportional to a blue-purple product that is detected at 570 nm.
(§1) Half-maximal inhibitory compound doses of differentiation (ID50) and cytotoxicity (IC50) were determined from concentration-response curves using GraphPad Prism.

TBX5 mRNA expression = experiment: day 10 qPCR of TBX5 in differentiating hiPSCs; type: cell-based, human; conditions: for hiPSCs (d10 TBX5) ID50: day 10, 50% reduction in TBX5 gene expression vs control
Source text: (§2) One of the main critiques of traditional developmental toxicity evaluations is the length of time and technical training required to successfully complete assays. As such, a shorter, quantifiable, and correct in vitro embryotoxicity assessment could improve throughput without sacrificing accuracy. Given the correct predictions achieved with contraction counts described above, we next investigated if our approach could be modified with a shorter, qPCR-based endpoint to determine differentiation inhibition. Here, we selected two cardiogenesis-specific transcription factors, TBX5 and MEF2c, to determine if the adverse differentiation outcomes would already be detectable as changes in TBX5 and MEF2c expression on day 10 of differentiation.
(§3) RNA was extracted from three wells per biological replicate using the protocol from NucleoSpin RNA II kit (Macherey-Nagel, Mountain View, CA, USA) and pooled. RNA from three independent differentiations was then quantified using a NanoDrop® 1000 spectrophotometer (ThermoFisher Scientific, Grand Island, NY, USA) at 260 nm. 25 ng of total RNA was used as a template for cDNA synthesis with a mastermix including 5 µL 5× reaction buffer, 1.25 µL 10 mM dNTPs, 1.25 µL 400 U/µL RNase inhibitor, 0.1 µL 200 U/µL reverse transcriptase, 0.1 µL 3 µg/µL random primer, and 1.5 µL DEPC H2O for a total of 25 µL per reaction. 25 ng cDNA transcripts were used for quantitative polymerase chain reaction (qPCR) SYBR green technology on the MyiQ cycler (Bio-Rad). The reactions were setup for 10 min of denaturing at 94 °C (initial), followed by 40 cycles of denaturing at 94 °C, and annealing at 60 °C each 45 s. The n-fold expression in target samples was calculated with the ΔΔCT method by standardizing Ct values to GAPDH expression. Primer sequences for human GAPDH were 5′-[…]-3′ and 5′-[…]-3′. Target genes were cardiogenic markers TBX5 and MEF2c. Primer sequences for human TBX5 were 5′-[…]-3′ and 5′-[…]-3′ and primer sequences for human MEF2c were 5′-[…]-3′ and 5′-[…]-3′ [27].
as §1

hiPSC = experiment: hiPSC-EST biostatistical prediction model; set-up: species or system human; conditions: for hiPSC (day 25 cluster) Biostatistical Embryotoxicity Classification: EST prediction model with contractile ID50, hiPSC IC50 and hFF IC50; for hiPSC (day 10 qPCR) Biostatistical Embryotoxicity Classification: EST prediction model with d10 TBX5 ID50
Source text: The prediction model uses a series of equations to perform a linear discriminant analysis using determined IC50 and ID50 values determined from dose–response curves. […] Importantly, half-maximal concentrations found for 5-FU and atRA were decades lower than the maximum plasma concentration (Cmax) achieved during human exposure underscoring the strong potential of these two compounds to elicit embryotoxic outcomes in vivo.
To compare the efficacy of qPCR-based embryotoxicity classifications versus contractile assay-based classifications, the ID50 values generated from 5-FU and atRA TBX5 mRNA dose–response curves were compared against the ID50 values from the contractile assay curves in the EST biostatistical model.

MEF2c mRNA expression = experiment: day 10 qPCR of MEF2c in differentiating hiPSCs; type: cell-based, human
Source text: as §2, §3, §1

[2] = 600 h, MTT, 25 day treatment, read-out: hFF IC50
[3] = fibroblast row of the hiPSC-EST in Table 1 (values equal hFF IC50 of Table 2), read-out: hiPSC 3T3 IC50

Compound | effect on hFF cell viability [1] | IC50 [1, 2] [µg/mL] | IC50 [1, 3] [µg/mL] | concentrations with reductions in hFF cell viability ([1]; MTT) [ng/mL] | concentrations with dramatically reduced d10 TBX5 mRNA expression (TBX5 mRNA expression; day 10) | hiPSCs (d10 TBX5) ID50 (TBX5 mRNA expression) [µg/mL] | hiPSC (day 25 cluster) Biostatistical Embryotoxicity Classification (hiPSC) | hiPSC (day 10 qPCR) Biostatistical Embryotoxicity Classification (hiPSC) | effect on MEF2c mRNA expression (MEF2c mRNA expression; day 10) | hFF IC50 ([1]; MTT, 25 day treatment) [µg/mL] | concentration with significant cell death in hFF ([1]; highest tested concentration) [ng/mL] | concentrations with significant upregulation in TBX5 mRNA expression (TBX5 mRNA expression; day 10) | doses with steady decline in MEF2c mRNA expression (MEF2c mRNA expression; day 10) | MEF2c mRNA ID50 (MEF2c mRNA expression; day 10 of differentiation) [µg/mL] | effect on TBX5 mRNA expression (TBX5 mRNA expression; day 10) | hiPSC (day 25 cluster) Biostatistical Embryotoxicity Classification (hiPSC; listed as PenG) | hiPSC (day 10 qPCR) Biostatistical Embryotoxicity Classification (hiPSC; listed as PenG)
O=c1[nH]cc(F)c(=O)[nH]1 [5-Fluorouracil, 5-fluorouracil] | dose-dependent reduction in cell viability | 0.000808 (≈ 0.00621 µM) | 0.00081 (≈ 0.00623 µM) | > 0.1 | above 1 × 10^−4 μg/mL | 0.000179 | Strongly embryotoxic | Strongly embryotoxic | No reductions in MEF2c mRNA expression | – | – | – | – | – | – | – | –
CC1=C(/C=C/C(C)=C/C=C/C(C)=C/C(=O)O)C(C)(C)CCC1 [All-Trans Retinoic Acid, all-trans retinoic acid] | dose-dependent reduction in cell viability | 0.0125 (≈ 0.0415 µM) | 0.0125 (≈ 0.0416 µM) | > 10 | – | 3.28e-06 | Strongly embryotoxic | Strongly embryotoxic | dose-dependently downregulated | 0.0125 | 1000 | lower than 1 × 10^−6 μg/mL | above 1 × 10^−3 μg/mL | 0.04 | – | – | –
CC1(C)S[C@@H]2[C@H](NC(=O)Cc3ccccc3)C(=O)N2[C@H]1C(=O)O [Penicillin G, penicillin G] | – | ~1430 (≈ 4290 µM) | 1430 (≈ 4290 µM) | ≥ 800000 | – | >1000 | Not embryotoxic | Not embryotoxic | remained largely unchanged | – | – | – | – | – | did not significantly impact TBX5 mRNA expression | non-embryotoxic | non-embryotoxic
